# Experimental data: publication PMC5048659 (Arthritis Research & Therapy, 2016)
# pIC50: −log10 of the molar value.
# Experiments:
# healthy volunteers = experiment: Clinical effect on serum uric acid (phase 1 RDEA594-109); assay type: in vivo, human
# Experimental: In each treatment period, plasma samples were collected within 30 minutes before dosing (pre-dose) and at 0.5, 1, 1.5, 2, 3, 4, 5, 6, 8, 10, 12, 16, 24, 30, 36, and 48 hours post-dose. Urine (total catch) was collected pretreatment at hours –24 to –18, –18 to –12, and –12 to 0, and post-dose at hours 0 to 6, 6 to 12, 12 to 24, 24 to 30, 30 to 36, and 36 to 48.
# Serum was collected within 30 minutes prior to drug administration, and at 6, 12, 16, 24, 30, 36, and 48 hours after dosing. Serum urate levels and PD parameters were assayed and calculated by Covance Clinical Research Unit as described above.
# HepG2 cells = experiment: Mitochondrial toxicity assay (JC-1 mitochondrial membrane potential); assay type: cell-based, human; settings: HepG2, highest concentration tested 33 μM
# Experimental: HepG2 cells were counted via hemocytometer and diluted into equal volumes of serum-free Opti-MEM (Life Technologies) and JC-1 Staining Solution (Sigma catalog number CS0390) at 300,000 cells/mL in the presence of 2.5 μg/mL JC-1. Cells were incubated at 37 °C and 5 % CO2 for 20 minutes, rinsed once with Hank's Balanced Salt Solution, and resuspended to the same concentration in serum-free Opti-MEM. Cells were then seeded into 96-well black-sided clear-bottom tissue culture plates at 30,000 cells/100 μL/well. Three replicates per experimental condition group were used. Compound was added with the final dimethyl sulfoxide (DMSO) concentration at 0.5 %. After 2 hours at 37 °C and 5 % CO2, medium was aspirated and plates were read on a Gemini EM spectrofluorometer (Molecular Devices). Fluorescence of JC-1 monomers was monitored by excitation at 490 nm and emission at 530 nm (green) and of aggregates by excitation at 525 nm and emission at 590 nm (red). The ratio of J-aggregates to monomers was calculated, with a lower ratio indicating increased cell toxicity. The percent change in mitochondrial membrane potential (Ψm) was calculated as follows: […]
# OAT3 = test system: OAT3; set-up: method as in earlier work; settings: oocytes, 2 µM 3H-estrone sulfate, 60 min; shown in Figure S1; ref 41 (Shen et al.); read-out: IC50 against OAT3; cited from earlier work
# ABCG2 = target: T1, ABCG2 (Homo sapiens, UniProt Q9UNQ0); experiment: ABCG2 genistein net B→A flux in Caco-2 monolayers; assay type: cell-based
# T1 construct: monolayers of Caco-2 cells expressing ABCG2 were grown on a permeable support; endogenous in cells; host or cells: Caco-2
# T1 sequence (Q9UNQ0 1-655): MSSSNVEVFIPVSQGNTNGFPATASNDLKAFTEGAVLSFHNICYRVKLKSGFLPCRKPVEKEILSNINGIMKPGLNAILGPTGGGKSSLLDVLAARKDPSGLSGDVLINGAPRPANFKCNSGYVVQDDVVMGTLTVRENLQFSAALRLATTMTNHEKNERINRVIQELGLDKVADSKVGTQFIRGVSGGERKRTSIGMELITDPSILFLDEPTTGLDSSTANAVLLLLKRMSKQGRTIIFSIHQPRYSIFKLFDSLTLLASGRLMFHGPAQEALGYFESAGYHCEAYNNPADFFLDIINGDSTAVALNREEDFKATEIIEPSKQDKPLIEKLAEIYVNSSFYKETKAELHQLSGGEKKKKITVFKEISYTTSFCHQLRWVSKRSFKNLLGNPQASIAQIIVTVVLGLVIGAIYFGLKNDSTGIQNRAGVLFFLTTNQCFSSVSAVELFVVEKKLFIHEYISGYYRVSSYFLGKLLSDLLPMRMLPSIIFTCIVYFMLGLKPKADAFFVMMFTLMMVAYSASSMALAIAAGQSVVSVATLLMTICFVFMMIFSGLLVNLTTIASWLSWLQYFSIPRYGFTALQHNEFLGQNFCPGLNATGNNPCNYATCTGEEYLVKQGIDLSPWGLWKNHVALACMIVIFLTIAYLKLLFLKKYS
# Experimental: For ABCG2, monolayers of Caco-2 cells expressing ABCG2 were grown on a permeable support ([…] membranes) in 24-transwell plates. […] Each treatment was assayed in triplicate: [^3H]-genistein substrate at 2 nM was then added for an additional 120 minutes at 37 °C. For basolateral-to-apical (B → A) flux measurements, genistein was placed in the basolateral compartment only (donor well) and a sample was taken after the 120-minute incubation period from the apical compartment (receiver well). For apical-to-basolateral (A → B) flux measurements, genistein was placed in the apical compartment only (donor well) and a sample was taken after the 120-minute incubation period from the basolateral compartment (receiver well). Samples were then subjected to scintillation counting. The inhibition of BCRP/ABCG2 was then calculated by the net B → A flux method. […]
# The net transport in the B → A direction was determined by subtracting the substrate flux in the A → B direction from that in the B → A direction: NetB→Aflux=PappB→A‐PappA→B.
# Percent inhibition is calculated by dividing the Net (B → A) flux in the presence of the inhibitor by the Net (B → A) flux in the absence of the inhibitor (inh): PercentInhibition=100‐100*NetB→Ainh/meanNetB→A.
compound,measurement,setting,value
"O=C(O)CSc1nnc(Br)n1-c1ccc(C2CC2)c2ccccc12 [Lesinurad, 2-((5-bromo-4-(4-cyclopropylnaphthalen-1-yl)-4H-1,2,4-triazol-3-yl)thio) acetic acid]",Reduction of sUA,"healthy volunteers; single 200-mg dose, after 6 hours, p < 0.001",33%
same,Maximum reduction of sUA,"healthy volunteers; single 600-mg dose, after 6 hours",42%
same,Reduction of sUA,"healthy volunteers; single 600-mg dose, after 24 hours",31%
same,Mitochondrial toxicity,HepG2 cells,no mitochondrial toxicity
same,pIC50,OAT3,5.45
same,pIC50,"ABCG2; Caco-2, 2 nM [3H]-genistein, 120 min, read-out: Potency against ABCG2",< 4.00
same,Effect on ABCG2 activity,"ABCG2; Caco-2, at up to 100 μM",no effect
